A word on the inhibition: it is the share of the control response that was lost under treatment.

Four compounds from patent publication US20230355597A1, “COMPOUNDS, COMPOSITIONS, AND METHODS FOR THE TREATMENT AND PREVENTION OF AVIAN PATHOGENIC E. COLI (APEC)” (OHIO STATE INNOVATION FOUNDATION, priority 2018, published 2023) can be followed below.

The subject of series [1] is AI-2 activity of APEC O15. Put plainly: AI-2 bioluminescence indicator assay (V. harveyi BB170). The conditions noted are these: APEC O15, 100 µM.
Series [2] deals with AI-2 activity of APEC O35. The series is described as above. The conditions noted are these: APEC O35, 100 µM.
Another series relates to AI-2 activity of APEC O2. The description is as above. The conditions noted are these: for Inhibition % of AI-2 activity: APEC O2, 100 µM.
Series [3] concerns QS and virulence associated genes of APEC O78. In words: qRT-PCR of QS-regulated and virulence factors genes. Type of series: cell-based, avian pathogenic Escherichia coli (APEC). As to conditions: 100 µM, 10 h. The protocol: Quantitative real-time reverse transcription PCR (qRT-PCR). […] APEC O78 was grown in the presence of 100 µM of each compound in a 96-well plate at 37° C. for 10 h. APEC O78 culture treated with 1 µL of 100% DMSO was used as […]. Total RNA was extracted from duplicate wells for each compound (200 µL) using a miRNeasy Mini Kit (Qiagen). RNA quality and quantity was determined by nanodrop 2000 C spectrophotometer (Thermo scientific). Traces of DNA was removed using Genomic DNA removal mix (Qiagen). Approximately, 5 µg of purified RNA was used to synthesize cDNA using the Qiagen RT^2 First Strand Kit (Qiagen). The qRT-PCR was performed using SensiMix™ SYBER® Hi-Rox qPCR Master Mix (Bioline) according to manufacturer instructions in a realplex^2 mastercycler (Eppendorf) with 55° C. annealing temperature. Gene-specific primers were designed using PrimerQuest Tool and obtained from integrated DNA technologies (IDT). The data were normalized to the house-keeping gene, glyceraldehyde-3-phosphate dehydrogenase (GAPDH). The relative fold change was calculated using the ΔΔCt method. Three independent experiments were conducted.

In series [4] the test system is AI-2 activity of APEC O115. In words: AI-2 bioluminescence indicator assay (V. harveyi BB170). As to conditions: APEC O115, 100 µM.
Another series has as its system AI-2 activity of APEC O8. The series is described as above. As to conditions: for Inhibition % of AI-2 activity: APEC O8, 100 µM.
In series [5] the test system is Rif^r APEC O78. Put plainly: In vivo screening of quorum sensing inhibitors in APEC infected broiler chickens. As to conditions: for reduction in chicken mortality: DMSO control mortality normalized to 100%; for average lesion score reduction: heart, lung and airsac, vs DMSO; for Mortality rate (%): oral gavage once a day, day 4 to day 8, DMSO control 66.7%; for Reduction in APEC lesions severity, Air-sacs (%) / Reduction in APEC lesions severity, Heart (%) / Reduction in APEC lesions severity, Liver (%) / Reduction in APEC lesions severity, Lung (%): vs DMSO treated control.

In series [6] the test system is Rif^r APEC O78. Put plainly: Wax moth (Galleria mellonella) larva infection model (AI-2 inhibitors). As to conditions: for larval death: 48 h post treatment.
For a further series, the system named is Caco-2 cells. Put plainly: LDH assay of AI-2 inhibitors. As to conditions: Caco-2, 100 µM, 24 h.
Series [7] concerns AI-2 activity of APEC O78. In words: AI-2 bioluminescence indicator assay (V. harveyi BB170). The conditions noted are these: for Inhibition % of AI-2 activity: APEC O78, 100 µM.
Another series relates to AI-2 activity of APEC O1. Described as above. As to conditions: for Inhibition % of AI-2 activity: APEC O1, 100 µM.
The subject of series [8] is AI-2 activity of APEC O18. The description is as above. The conditions noted are these: for Inhibition % of AI-2 activity: APEC O18, 100 µM.
In series [9] the test system is AI-2 activity of APEC O109. The series is described as above. The conditions noted are these: for Inhibition % of AI-2 activity: APEC O109, 100 µM.
The next series relates to APEC O2 in HD-11 cells. Put plainly: Intracellular survival assay (AI-2 inhibitors). The conditions noted are these: O2, HD-11, 100 µM, 6 h; for reduction of intracellular survival: vs DMSO.
A further series deals with APEC O78 in HD-11 cells. In words: Intracellular survival assay (AI-2 inhibitors). The conditions noted are these: O78, HD-11, 100 µM, 6 h. Type of series: cell-based, avian pathogenic Escherichia coli (APEC). The source says: Intracellular survival assay.
In the next series the test system is APEC O2 in THP-1 cells. In words: Intracellular survival assay (AI-2 inhibitors). As to conditions: O2, THP-1, 100 µM, 6 h.
Where [10] appears, read: Escherichia coli, read-out: Inhibition % of AI-2 activity.

Structures are written as SMILES. Where only a bound is given, the exact number is not on record here.

Consider `CCc1ccccc1Nc1nc(-c2c(C)nc3ccccn23)cs1` [C8, N-{2-ethyphenyl)-4-(2-methylimidazo[1,2-a]pyridin-3-yl)-1.3-thiazol-2-amine], for which the “Inhibition % of AI-2 activity” value is on record as 25% in [1]; 57% in series [2]; 94% in the series on AI-2 activity of APEC O2; 44% in [4]; 18% with AI-2 activity of APEC O8; 98% in series [7]. Besides, the “Inhibition % of AI-2 activity” value with AI-2 activity of APEC O1 came to 41%; in [8], 54%. Besides, the “expression of fliP” value in series [3] was “down-regulated”. Besides, the “reduction in chicken mortality” value in the series with Rif^r APEC O78 [5] is given as 50%. In the series with Rif^r APEC O78 [5] (liver), the “average lesion score reduction” value is on record as 1.0-2.0. Besides, the “reduction of bacterial load in internal organs” value in the series on Rif^r APEC O78 [5] (liver, lung, heart, and kidney, vs DMSO control, 'up to') is given as 2.2-3.1 log CFU/g. Besides, in the series on Rif^r APEC O78 [5], the “Mortality rate (%)” value turned out to be 33.3%. Besides, the “Reduction in APEC lesions severity, Air-sacs (%)” value in the series with Rif^r APEC O78 [5] turned out to be 66.7%. Further, the “Reduction in APEC lesions severity, Heart (%)” value in the series on Rif^r APEC O78 [5] is 75%. In addition, in the series on Rif^r APEC O78 [5], the “Reduction in APEC lesions severity, Liver (%)” value was 75%. The “Reduction in APEC lesions severity, Lung (%)” value in the series with Rif^r APEC O78 [5] is on record as 83.3%. The larval death entry with Rif^r APEC O78 [6] is given as “no larval death”. Besides, the “clearance of APEC in live larvae” value in the series with Rif^r APEC O78 [6] (72 h) is recorded as 100%. Also, in the series with Caco-2 cells, the “toxicity (LDH)” value is listed as 2%.

In the case of `O=[N+]([O-])c1cccc(S(=O)(=O)Nc2ccc(Br)cc2)c1` [C6, N-(4-bromophenyl)-3-nitrobenzenesulfonamide], the inhibition at 100 µM in the series with AI-2 activity of APEC O2 (setting [10]) stood at 93%. Also, in [3], the “expression of cheW” value was “down-regulated”, the “expression of csrA” value was “down-regulated”, the “expression of fliP” value is listed as “down-regulated” and the expression of fpr result was “down-regulated”. The “expression of murD” value in series [3] was “down-regulated”. Moreover, the inhibition at 100 µM in the series on AI-2 activity of APEC O8 (Escherichia coli, read-out: Inhibition % of AI-2 activity, APEC O8, 100 µM) is no less than 75%. Moreover, in the series with Rif^r APEC O78 [5], the “reduction in chicken mortality” value was “did not reduce”; the “Mortality rate (%)” value worked out at 66.7%; the “Reduction in APEC lesions severity, Air-sacs (%)” value came to 53.3%; the “Reduction in APEC lesions severity, Heart (%)” value is listed as 43.8%. In addition, in the series with Rif^r APEC O78 [5], the “Reduction in APEC lesions severity, Liver (%)” value was 54.5% and the “Reduction in APEC lesions severity, Lung (%)” value is given as 66.7%. Also, the “average lesion score reduction” value in the series with Rif^r APEC O78 [5] (liver) is reported as 0.7-1.3. For the same compound, the larval death result in the series with Rif^r APEC O78 [6] was “no larval death”. In addition, the inhibition at 100 µM in series [9] (setting [10]) amounted to 60%. In the series on Caco-2 cells, the “toxicity (LDH)” value is reported as 27%. Further, in the series on APEC O2 in HD-11 cells, the “clearance of intracellular APEC” value is given as 100% and the “reduction of intracellular survival” value amounted to 3.3 logs. In addition, in [7] (setting [10]), the inhibition at 100 µM worked out at 92%. Also, the inhibition at 100 µM in the series with AI-2 activity of APEC O1 (Escherichia coli, read-out: Inhibition % of AI-2 activity, APEC O1, 100 µM) is no less than 75%. Besides, the inhibition at 100 µM in series [8] (Escherichia coli, read-out: Inhibition % of AI-2 activity, APEC O18, 100 µM) was no less than 75%.

Regarding `Fc1ccc(CN2CCCN(Cc3nc(-c4ccc(C(F)(F)F)cc4)no3)CC2)cc1` [C9, 1-(4-flurobenzyl)-4-((3-[4-(trifluoromethyl)phenyl]-1,2,4-oxadiazol-5-yl]methyl)-1,4-diazapane], the “Inhibition % of AI-2 activity” value is listed as 0% in series [1]; 36% in [2]; 51% with AI-2 activity of APEC O2; 44% in [4]; 20% with AI-2 activity of APEC O8; 66% in series [9]. The “Inhibition % of AI-2 activity” value in [7] is listed as 79%; with AI-2 activity of APEC O1, 19%; in series [8], 14%. Also, the “clearance of intracellular APEC” value in the series on APEC O78 in HD-11 cells, in the series on APEC O2 in THP-1 cells and with APEC O2 in HD-11 cells was 100% each time. Moreover, the “reduction of intracellular survival” value in the series with APEC O78 in HD-11 cells (vs DMSO) is 4 logs; with APEC O2 in THP-1 cells (vs DMSO), 4 logs; in the series on APEC O2 in HD-11 cells, 3.3 logs. The “expression of cheW” value in series [3] is reported as “down-regulated”. Also, in series [3], the “expression of csrA” value is reported as “down-regulated”. Also, in series [3], the “expression of murD” value is “down-regulated”.

Regarding `COC(=S)NN=Cc1cc(C)ccc1O` [C4, methyl N′-{2-hydroxy-5-methylbenzylidene)hydrazonethiocarbonate], the “Inhibition % of AI-2 activity” value in series [1] amounted to 46%; in series [2] it was 60%; in the series on AI-2 activity of APEC O2, 76%; in series [4], 58%; in the series with AI-2 activity of APEC O8, 0%; in [9] it was 67%. In addition, the “Inhibition % of AI-2 activity” value is reported as 75% in [7], 63% in the series with AI-2 activity of APEC O1 and 54% in [8]. Moreover, the “expression of cheW” value in [3] is recorded as “down-regulated”. Further, in [3], the “expression of csrA” value is reported as “down-regulated”. Also, the “expression of iucD” value in series [3] is given as “down-regulated”. In [3], the expression of pfs entry is “up-regulated”. Also, in the series with Caco-2 cells, the “toxicity (LDH)” value is recorded as 12%.
